Results taken from patent US8846670B2, “1,2,3,4-tetrahydro-pyrimido(1,2-a)pyrimidin-6-one derivatives, preparation thereof, and pharmaceutical use thereof” (priority 2009, dated 2014).

Legend:
Format in all cases: cell-based
[1] = system: AKT protein phosphorylated on serine 473 (pAKT-S473) in PC3 human prostate carcinoma line; experiment: Study of pAKT expression in PC3 human prostate carcinoma cells measured by western blotting (Test A); conditions: PC-3, 1 to 2 hours incubation, approximate absolute IC50, mean of two experiments
Experimental: The inhibitory activity of the molecules on AKT phosphorylation is measured either by western blotting using the technique described below, or by the MSD Multi-spot Biomarker detection technique from Meso Scale Discovery also described below. […] Study of pAKT Expression in Pc3Human Prostate Carcinoma Cells Measured by Western Blotting (Test A): This test is based on measuring the expression of the AKT protein phosphorylated on […]. […] On day 2, the cells are incubated in the presence or absence of the test products for 1 to 2 hours at 37° C. in the presence of 5% CO2. The molecules, diluted in dimethyl sulphoxide (DMSO Sigma #D2650), are added from a 10-times concentrated stock solution, the final percentage of DMSO being 0.1%. […] After this incubation, the cells are lysed for the preparation of the proteins. […] The lysate is centrifuged for 10 min at 6000 rpm. 155 μl of supernatant are recovered. 150 μl are incubated for denaturation for 5 min at 95° C. in the presence of 4× NuPAGE LDS Sample Buffer diluted 4-fold (InVitrogen ref NP0007) and of 10× NuPAGE Sample Reducing Agent diluted 10-fold (InVitrogen ref NP0009). These samples are then frozen at -20° C. […] The gel is then transferred on to an Invitrolon PVDF membrane (Invitrogen #LC2007) permeabilised beforehand for a few seconds in ethanol (Ethanol Fischer Scientific #E/0600DF/15). The transfer is carried out in a Biorad tank at 30 volts overnight or at 60 volts for 3 hours, in the presence of 20× NUPAGE Transfer Buffer diluted 20-fold (InVitrogen ref NP0006). The membrane is then saturated in saturating solution composed of TBS (10× Tris Buffered Saline, Sigma #T5912, diluted 10-fold), 0.1% Tween 20 (Sigma #P5927) and 3% BSA (Bovine Serum Albumin Fraction V, Sigma #A4503) for 6 h after overnight transfer or else for 1 h after transfer for a period of 3 h. […] Two rinses for 5 min in washing solution composed of TBS and 0.1% Tween 20 are carried out before hybridisation of the secondary antibodies. The secondary antibodies are diluted to 1/10000th for the rabbit anti-Mouse IgG HRP antibody ([…] Promega) and to 1/10000th for the goat anti-Rabbit IgG HRP antibody ([…] Promega) in saturating solution, and then shaken for 1 h at ambient temperature. Two rinses for 30 min in washing solution are carried out and then a rinse for 5 min in H2O is carried out in order to eliminate the remaining Tween 20. […] The luminescence is read with the FujiFilm device (Ray Test). The FUJI device measures the total luminescence signal obtained (AU) for each band selected. It then subtracts the background noise (BG) proportional to the size of the band selected (Area), said background noise being calculated from a specific background noise band, with a view to obtaining the specific signal (AU-BG) for each band. The band obtained in the absence of product and in the presence of 0.1% DMSO is considered to be the 100% signal. The software calculates the % specific activity (Ratio) obtained for each band selected as a function of this 100% signal. The percentage inhibition is calculated for each concentration according to the formula (100%-Ratio). Two independent experiments make it possible to calculate the mean of the percentages of inhibition obtained at a given concentration for the products tested only at one concentration. […] Two independent experiments make it possible to calculate the mean of the IC50 values.

[2] = system: P. falciparum (highly chloroquine-resistant strain Fcm29-Cameroon); experiment: Antimalarial activity test (radioactive micromethod of Desjardins); conditions: Plasmodium falciparum, Erythrocyte, infected human erythrocytes, 48 h, tritiated hypoxanthine incorporation
Experimental: Antimalarial Activity Test
The P. falciparum strains are cultured in solutions of RPM! […] For each assay, the parasites are incubated with selected concentrations of drugs for 48 h at 37° C. in a humid atmosphere and at 5% CO2. Artemisinin, artesunate and also chloroquine diphosphate are used as reference molecules. The first dilution of the drug is prepared at 1 mg/ml in dimethyl sulphoxide. The range of successive daughter solution dilutions is also prepared in dimethyl sulphoxide. […] These dilutions are then added to the parasites in culture in the microplates. […] The growth of the parasites is measured by incorporation of tritiated hypoxanthine (added 24 h after the beginning of the exposure to the drug) compared with the incorporation in the absence of drug.

[3] = system: translocation of the LC3 protein in Hela GFP-LC3 cells; experiment: Study of the translocation of the LC3 protein in Hela human cells, measured by image analysis cytometry (Test C, autophagy); conditions: Homo sapiens, HeLa, 2 h, Hela GFP-LC3 cells with LC3 granulations, EBSS + 10 μM hydroxychloroquine, absolute IC50
[4] = system: AKT protein phosphorylated on serine 473 (P-AKT-S473) in PC3 human prostate carcinoma line; experiment: Study of pAKT expression in PC3 human prostate carcinoma cells measured by the MSD Multi-spot Biomarker Detection technique (Test B); conditions: Homo sapiens, PC-3, P-AKT-S473 in PC3 cells, MSD sandwich immunoassay, 1 to 2 h incubation; absolute IC50, mean of 2 experiments

Row | SMILES | IC50 [1] | inhibition at 0.1 µM [2] | inhibition at 1 µM [2] | IC50 [3] | IC50 [4]
1 | COc1ccc(CCN2c3nc(N4CCOCC4)cc(=O)n3CC[C@H]2C(F)(F)F)cc1 [Example 1, (S)-9-[2-(4-methoxyphenyl)ethyl]-2-morpholin-4-yl-8-trifluoromethyl-6,7,8,9-tetrahydropyrimido[1,2-a]pyrimidin-4-one] | 15 nM | 79% | 99% | 11 nM | 
2 | O=c1cc(N2CCOCC2)nc2n1CC[C@@H](C(F)(F)F)N2c1ccncc1 [Example 20, (S)-2-morpholin-4-yl-9-pyridin-4-yl-8-trifluoromethyl-6,7,8,9-tetrahydropyrimido[1,2-a]pyrimidin-4-one] | 60 nM |  |  | > 1000 nM | 
3 | C[C@H](c1cccc(F)c1)N1c2nc(N3CCOCC3)cc(=O)n2CC[C@H]1C(F)(F)F (single isomer, unassigned) [Example 16, (8S)-9-[(1R or 1S)-1-(3-fluorophenyl)ethyl]-2-(morpholin-4-yl)-8-(trifluoromethyl)-6,7,8,9-tetrahydro-4H-pyrimido[1,2-a]pyrimidin-4-one] | 41 nM |  |  | 187 nM | 
4 | O=c1cc(N2CCOCC2)nc2n1CC[C@@H](C(F)(F)F)N2Cc1ccccc1 [Example 4, (S)-9-benzyl-2-morpholin-4-yl-8-trifluoromethyl-6,7,8,9-tetrahydropyrimido[1,2-a]pyrimidin-4-one] | 265 nM | 19% | 97% | 569 nM | 
5 | O=c1cc(N2CCOCC2)nc2n1CC[C@@H](C(F)(F)F)N2c1ccccc1 [Example 12, (8S)-2-(morpholin-4-yl)-9-phenyl-8-(trifluoromethyl)-6,7,8,9-tetrahydro-4H-pyrimido[1,2-a]pyrimidin-4-one] | 6600 nM |  | 59% | 441 nM | 
6 | O=c1cc(N2CCOCC2)nc2n1CC[C@@H](C(F)(F)F)N2CCc1ccccc1 [Example 3, (S)-2-morpholin-4-yl-9-phenethyl-8-trifluoromethyl-6,7,8,9-tetrahydropyrimido[1,2-a]pyrimidin-4-one] | 15 nM |  |  | 20 nM | 
7 | O=c1cc(N2CCOCC2)nc2n1CC[C@@H](C(F)(F)F)N2c1ccccc1F [Example 15, (8S)-9-(2-fluorophenyl)-2-(morpholin-4-yl)-8-(trifluoromethyl)-6,7,8,9-tetrahydro-4H-pyrimido[1,2-a]pyrimidin-4-one] | 2720 nM |  |  | > 1000 nM | 7 nM
8 | C[C@@H](c1ccccc1)N1c2nc(N3CCOCC3)cc(=O)n2CC[C@H]1C(F)(F)F (single isomer, unassigned) [Example 8, (8S)-2-(morpholin-4-yl)-9-[(1R or 1S)-1-phenylethyl]-8-(trifluoromethyl)-6,7,8,9-tetrahydro-4H-pyrimido[1,2-a]pyrimidin-4-one] | 75 nM |  |  | 462 nM | 
9 | O=C(c1ccccc1)N1c2nc(N3CCOCC3)cc(=O)n2CC[C@H]1C(F)(F)F [Example 18, (S)-9-Benzoyl-2-morpholin-4-yl-8-trifluoromethyl-6,7,8,9-tetrahydropyrimido[1,2-a]pyrimidin-4-one] | 335 nM |  |  | > 1000 nM | 
